# Measured values from patent publication US11034650B2, “Compounds useful for treating a Mannheimia haemolytica or Histophilus somni infection” (Intervet Inc., priority 2016, dated 2021).
# Experiments:
# Format in all cases: cell-based
# [1] = tested on: Mannheimia haemolytica MH 6357 (M7/2, reference strain, cattle infection strain); experiment: MIC, broth-microdilution (CLSI VET01-A4), strain MH 6357; details: Mannheimia haemolytica strain MH 6357, broth-microdilution; unit assumed
# How it was run: (§1)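 MIC recorded as the lowest drug level giving no growth visible to the naked eye, from two-fold serial dilutions. Interpretation followed VET01-S3.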
# [2] = tested on: Mannheimia haemolytica MH 6374 (ATCC 33396, reference strain); experiment: MIC, broth-microdilution (CLSI VET01-A4), strain MH 6374; details: Mannheimia haemolytica strain MH 6374, broth-microdilution; unit assumed
# How it was run: as §1
# [3] = tested on: Mannheimia haemolytica MH 10720 (154, BRD field isolate); experiment: MIC, broth-microdilution (CLSI VET01-A4), strain MH 10720; details: Mannheimia haemolytica strain MH 10720, broth-microdilution; unit assumed
# How it was run: as §1
# [4] = tested on: Mannheimia haemolytica MH 12587 (1071, BRD field isolate, macrolide-resistance: erm+, E+); experiment: MIC, broth-microdilution (CLSI VET01-A4), strain MH 12587; details: Mannheimia haemolytica strain MH 12587, broth-microdilution; unit assumed
# How it was run: as §1
# [5] = tested on: Mannheimia haemolytica MH 13065 (XB0446-6003.9, BRD field isolate); experiment: MIC, broth-microdilution (CLSI VET01-A4), strain MH 13065; details: Mannheimia haemolytica strain MH 13065, broth-microdilution; unit assumed
# How it was run: as §1
# [6] = tested on: Mannheimia haemolytica MH 13093 (XB0472-6014.1, BRD field isolate); experiment: MIC, broth-microdilution (CLSI VET01-A4), strain MH 13093; details: Mannheimia haemolytica strain MH 13093, broth-microdilution; unit assumed
# How it was run: as §1
# [7] = tested on: Pasteurella multocida PM 6267 (P 2225 (L386), reference strain, mouse infection strain); experiment: MIC, broth-microdilution (CLSI VET01-A4), strain PM 6267; details: Pasteurella multocida strain PM 6267, broth-microdilution; unit assumed
# How it was run: as §1
# [8] = tested on: Pasteurella multocida PM 6391 (ATCC 43137, reference strain); experiment: MIC, broth-microdilution (CLSI VET01-A4), strain PM 6391; details: Pasteurella multocida strain PM 6391, broth-microdilution; unit assumed
# Method: For example, representative compounds were tested against ***, Mannheimia haemolytica and Pasteurella multocida, using the conventional broth-dilution assay.
# The Minimum inhibitory concentrations (MIC) of compounds according to the invention for a number of veterinary bacterial pathogens were determined by the broth-microdilution method according to CLSI document VET01-A4.
# Microdilution trays containing a doubling dilution series of the test compound were used for the tests. The MIC results were interpreted according to the CLSI documents VET01-S3. The lowest concentration of compound at which no visible growth (i.e. no turbidity) detected by the unaided eye was recorded as the MIC.
# [9] = tested on: Pasteurella multocida PM 10775 (080130003051, BRD field isolate); experiment: MIC, broth-microdilution (CLSI VET01-A4), strain PM 10775; details: Pasteurella multocida strain PM 10775, broth-microdilution; unit assumed
# How it was run: as §1
# [10] = tested on: Pasteurella multocida PM 12080 (IV102277-0093, BRD field isolate); experiment: MIC, broth-microdilution (CLSI VET01-A4), strain PM 12080; details: Pasteurella multocida strain PM 12080, broth-microdilution; unit assumed
# How it was run: as §1
SMILES,MIC PM 6267 [7],MIC PM 6391 [8],MIC PM 10775 [9],MIC PM 12080 [10],MIC MH 6357 [1],MIC MH 6374 [2],MIC MH 10720 [3],MIC MH 12587 [4],MIC MH 13065 [5],MIC MH 13093 [6]
CC(C)([C@H](NC(=O)c1ccc(C#Cc2ccc(CNCc3ccncc3)s2)cc1)C(=O)NO)S(C)(=O)=O [Compound 317],0.2 µg/mL,≤ 0.1 µg/mL,≤ 0.1 µg/mL,≤ 0.1 µg/mL,0.2 µg/mL,0.4 µg/mL,≤ 0.1 µg/mL,0.8 µg/mL,0.4 µg/mL,0.4 µg/mL
CC(=O)C(NC(=O)c1ccc(C#Cc2ccc(CNCc3ccncc3)cc2)cc1)C(=O)NO (centres unmarked) [Compound 402],50 µg/mL,0.8 µg/mL,3.1 µg/mL,1.6 µg/mL,6.3 µg/mL,12.5 µg/mL,6.3 µg/mL,1.6 µg/mL,6.3 µg/mL,6.3 µg/mL
CC(C)(O)[C@H](NC(=O)c1ccc(C#Cc2ccc(CNCc3ccccc3)cc2)cc1)C(=O)NO [Compound 223],≤ 0.1 µg/mL,≤ 0.1 µg/mL,≤ 0.1 µg/mL,≤ 0.1 µg/mL,0.8 µg/mL,0.4 µg/mL,≤ 0.1 µg/mL,0.8 µg/mL,0.4 µg/mL,0.4 µg/mL
CC(C)(O)[C@H](NC(=O)c1ccc(C#Cc2ccc(CNCC#N)s2)cc1)C(=O)NO [Compound 358],0.8 µg/mL,1.6 µg/mL,0.2 µg/mL,0.8 µg/mL,3.1 µg/mL,1.6 µg/mL,0.8 µg/mL,6.3 µg/mL,6.3 µg/mL,6.3 µg/mL
CC(=O)C(NC(=O)c1ccc(C#Cc2ccc(CNCc3nccs3)cc2)cc1)C(=O)NO (centres unmarked) [Compound 414],6.3 µg/mL,≤ 0.1 µg/mL,0.4 µg/mL,≤ 0.1 µg/mL,0.8 µg/mL,1.6 µg/mL,0.8 µg/mL,0.4 µg/mL,0.8 µg/mL,1.6 µg/mL
C=CCNCc1ccc(C#Cc2ccc(C(=O)N[C@H](C(=O)NO)C(C)(C)SC)cc2)cn1 [Compound 336],0.8 µg/mL,1.6 µg/mL,≤ 0.1 µg/mL,0.8 µg/mL,0.8 µg/mL,0.8 µg/mL,0.2 µg/mL,3.1 µg/mL,1.6 µg/mL,1.6 µg/mL
Cc1ccc(CNCc2ccc(C#Cc3ccc(C(=O)NC(C(=O)NO)C(C)(C)[N+](=O)[O-])cc3)cc2)cc1 (centres unmarked) [Compound 283],3.1 µg/mL,1.6 µg/mL,0.2 µg/mL,0.8 µg/mL,3.1 µg/mL,3.1 µg/mL,0.2 µg/mL,6.3 µg/mL,1.6 µg/mL,3.1 µg/mL
CC(C)([C@H](NC(=O)c1ccc(C#Cc2ccc(CNCC#N)s2)cc1)C(=O)NO)S(C)(=O)=O [Compound 318],0.8 µg/mL,0.8 µg/mL,≤ 0.1 µg/mL,0.2 µg/mL,0.4 µg/mL,0.8 µg/mL,≤ 0.1 µg/mL,1.6 µg/mL,0.8 µg/mL,1.6 µg/mL
CSC(C)(C)[C@H](NC(=O)c1ccc(C#Cc2ccc(CNCc3cccnc3)s2)cc1)C(=O)NO [Compound 306],0.8 µg/mL,0.4 µg/mL,≤ 0.1 µg/mL,0.4 µg/mL,0.8 µg/mL,0.8 µg/mL,0.2 µg/mL,3.1 µg/mL,0.8 µg/mL,0.8 µg/mL
CC(C)([C@H](NC(=O)c1ccc(C#Cc2ccc(CNCC#N)nc2)cc1)C(=O)NO)S(C)(=O)=O [Compound 372],1.6 µg/mL,1.6 µg/mL,0.4 µg/mL,0.8 µg/mL,6.3 µg/mL,12.5 µg/mL,3.1 µg/mL,25 µg/mL,12.5 µg/mL,25 µg/mL
C=CCNCc1ccc(C#Cc2ccc(C(=O)N[C@H](C(=O)NO)C(C)(C)O)cc2)cc1 [Compound 220],≤ 0.1 µg/mL,0.4 µg/mL,≤ 0.1 µg/mL,0.4 µg/mL,3.1 µg/mL,0.8 µg/mL,≤ 0.1 µg/mL,3.1 µg/mL,0.8 µg/mL,1.6 µg/mL
CC(C)([C@H](NC(=O)c1ccc(C#Cc2ccc(CNC3CC3)s2)cc1)C(=O)NO)S(C)(=O)=O [C.311],0.4 µg/mL,≤ 0.1 µg/mL,≤ 0.1 µg/mL,≤ 0.1 µg/mL,0.2 µg/mL,≤ 0.1 µg/mL,≤ 0.1 µg/mL,0.4 µg/mL,≤ 0.1 µg/mL,0.4 µg/mL

# The next lines start with results.
MIC PM 6267 [7],MIC PM 6391 [8],MIC PM 10775 [9],MIC PM 12080 [10],SMILES,MIC MH 6357 [1],MIC MH 6374 [2],MIC MH 10720 [3],MIC MH 12587 [4],MIC MH 13065 [5],MIC MH 13093 [6]
0.4 µg/mL,1.6 µg/mL,≤ 0.1 µg/mL,0.8 µg/mL,CC[C@H](C)[C@H](NC(=O)c1ccc(C#Cc2ccc(CN3CCN(C)CC3)cc2)cc1)C(=O)NO [Compound 175],6.3 µg/mL,12.5 µg/mL,3.1 µg/mL,25 µg/mL,12.5 µg/mL,12.5 µg/mL
0.2 µg/mL,0.8 µg/mL,≤ 0.1 µg/mL,0.4 µg/mL,CSC(C)(C)[C@H](NC(=O)c1ccc(C#Cc2ccc(CNC3CCC3)cc2)cc1)C(=O)NO [Compound 243],3.1 µg/mL,3.1 µg/mL,0.4 µg/mL,3.1 µg/mL,1.6 µg/mL,1.6 µg/mL
0.8 µg/mL,1.6 µg/mL,≤ 0.1 µg/mL,1.6 µg/mL,O=C(N[C@@H](CO)C(=O)NO)c1ccc(C#Cc2ccc(CN3CCCCC3)cc2)cc1 [Compound 156],6.3 µg/mL,6.3 µg/mL,1.6 µg/mL,12.5 µg/mL,12.5 µg/mL,12.5 µg/mL
≤ 0.1 µg/mL,0.4 µg/mL,≤ 0.1 µg/mL,0.4 µg/mL,CC(C)([C@H](NC(=O)c1ccc(C#Cc2ccc(CN3CCCC3)cc2)cc1)C(=O)NO)S(C)(=O)=O [Compound 262],12.5 µg/mL,6.3 µg/mL,1.6 µg/mL,12.5 µg/mL,6.3 µg/mL,6.3 µg/mL
≤ 0.1 µg/mL,0.2 µg/mL,≤ 0.1 µg/mL,≤ 0.1 µg/mL,CC1CN(Cc2ccc(C#Cc3ccc(C(=O)N[C@H](C(=O)NO)C(C)C)cc3)cc2)CC(C)O1 (some centres unmarked) [Compound 165],6.3 µg/mL,12.5 µg/mL,3.1 µg/mL,25 µg/mL,12.5 µg/mL,12.5 µg/mL
≤ 0.1 µg/mL,0.2 µg/mL,≤ 0.1 µg/mL,≤ 0.1 µg/mL,CC(C)[C@H](NC(=O)c1ccc(C#Cc2ccc(CNCc3cccs3)cc2)cc1)C(=O)NO [Compound 171],0.2 µg/mL,0.4 µg/mL,≤ 0.1 µg/mL,0.8 µg/mL,0.2 µg/mL,0.4 µg/mL
12.5 µg/mL,≤ 0.1 µg/mL,0.8 µg/mL,0.4 µg/mL,CC(=O)[C@H](NC(=O)c1ccc(C#Cc2ccc(CNC3CC3)cc2)cc1)C(=O)NO [Compound 396],1.6 µg/mL,1.6 µg/mL,1.6 µg/mL,0.4 µg/mL,3.1 µg/mL,3.1 µg/mL
≤ 0.1 µg/mL,0.2 µg/mL,≤ 0.1 µg/mL,≤ 0.1 µg/mL,CC(C)[C@H](NC(=O)c1ccc(C#Cc2ccc(CN3CCN(C)CC3)cc2)cc1)C(=O)NO [Compound 211],3.1 µg/mL,12.5 µg/mL,1.6 µg/mL,12.5 µg/mL,6.3 µg/mL,6.3 µg/mL
0.4 µg/mL,1.6 µg/mL,≤ 0.1 µg/mL,1.6 µg/mL,CC[C@H](C)[C@H](NC(=O)c1ccc(C#Cc2ccc(CNC)cc2)cc1)C(=O)NO [Compound 194],6.3 µg/mL,25 µg/mL,,25 µg/mL,6.3 µg/mL,12.5 µg/mL
